Two compounds from patent US20070092551A1, “Therapeutic agent” (TAKARA BIO INC., priority 2003, published 2007) can be followed below.

What all share (format): cell-based
In test [1] the test system is mature adipocytes which were induced to be differentiated by xanthoangelol. Put plainly: Glucose uptake into adipocytes induced to be differentiated by xanthoangelol. To be noted: stimulation with insulin 1 μg/mL; adipocytes differentiated with xanthoangelol 10 μM. How it is done: Adipocytes which were induced to be differentiated by xanthoangelol were obtained, and thereafter it was confirmed on whether the glucose uptake into the adipocytes is enhanced by stimulation with insulin or 4-hydroxyderricin.
Specifically, as a sample, there was set a group with addition of a dimethyl sulfoxide solution of xanthoangelol having a final concentration of 10 μM. Thereafter, the medium and the sample were exchanged in the same manner as in the method described in Example 82 except that 3-isobutyl-1-methylxanthine having a final concentration of 0.5 mM was added concurrently with the addition of dexamethasone, to give mature adipocytes which were induced to be differentiated by xanthoangelol.
Next, the amount of 2-deoxyglucose uptake into the mature adipocytes during the stimulation with insulin or 4-hydroxyderricin in the resulting mature adipocytes was determined in the same manner as in the method described in Example 83.
Specifically, there were set the group without the addition and the group with addition of insulin having a final concentration of 1 μg/mL or 4-hydroxyderricin having a final concentration of 20 μM. Thereafter, the amount of 2-deoxy-[1,2-^3H(N)]-glucose uptake into the adipocytes was determined in the same manner.

Test [2] relates to insulin-resistant mature adipocytes. Put plainly: Enhancing action on glucose uptake into insulin-resistant (TNF-α treated) mature adipocytes. To be noted: group treated with insulin; mature adipocytes treated with mouse-derived TNF-α 10 or 20 ng/mL. On the procedure: It is said that tumor necrosis factor a (TNF-α) is deeply involved in insulin resistance, and it has been known that a signal from an insulin receptor is inhibited by treating mature adipocytes with TNF-α, so that a reaction of glucose uptake is inhibited by insulin stimulation (Proc. Natl. Acad. Sci. USA, vol. 91, p 4854-4858 (1994)). The enhancing action by 4-hydroxyderricin on glucose uptake into mature adipocytes in which insulin resistance was induced by TNF-α was evaluated.
The induction of differentiation into mature adipocytes was carried out in the same manner as in the method described in Example 83, except that after preparation of the mature adipocytes, in order to induce insulin resistance in these mature adipocytes, mouse-derived TNF-α (manufactured by Cosmobio, 3410) was added to the medium so as to have a final concentration of 10 ng/mL or 20 ng/mL, and the adipocytes were cultured for additional 2 days. […]
The enhancing action on glucose uptake was evaluated in the same manner as in the method described in Example 83. For each of the cells prepared in item (1) of Example 95 mentioned above, there were set a group containing 4-hydroxyderricin at a final concentration of 30 μM, a group without addition of the sample as a negative control, and a group with treatment with insulin, and the radioactivity of each group was determined. […]

Test [3] relates to mature adipocytes (3T3-L1 cells). The test is described as follows: Glucose uptake enhancement inhibited by cytochalasin B. To be noted: cytochalasin B 40 μM added to the 4-hydroxyderricin 7.8 μM, insulin 1 μg/mL and negative control groups. How it is done:
The influence of cytochalasin B on 2-deoxyglucose uptake into matured adipocytes during the stimulation with the sample in the adipocytes was tested in accordance with the method shown in Example 83 on whether or not the enhancing action of 4-hydroxyderricin on glucose uptake shown in Example 83 is inhibited by cytochalasin B, which is an inhibitor of a glucose transporter.
Specifically, as a sample, a group with addition of a dimethyl sulfoxide solution of 4-hydroxyderricin so as to have a final concentration of 7.8 μM was set. Here, there were set a group without addition of the sample as a negative control and a group with addition of insulin so as to have a final concentration of 1 μg/mL as a positive control. Furthermore, there was set a group with addition of cytochalasin B (manufactured by nacalai tesque, 10435-81) to each group so as to have a final concentration of 40 μM in the same time as the time of addition of insulin. Thereafter, 2-deoxy-[1,2-^3H(N)]-glucose subjected to uptake into the adipocytes was determined in the same manner.

For “insulin: insulin (manufactured by TAKARA BIO INC.), positive control”, in test [1], the “2-deoxy-[1,2-3H(N)]-glucose uptake” value was “enhancement of 2-deoxy-[1,2-^3H(N)]-glucose uptake”. Also, the “enhancing action on glucose uptake, increase without TNF-α defined as 100%” value in test [2] is recorded as “around 40%”.
Take `C=C1[C@@H](C)[C@H]2[C@H](Cc3ccccc3)NC(=O)[C@]23OC(=O)/C=C/[C@H](O)CCC[C@@H](C)C/C=C/[C@H]3[C@@H]1O` [cytochalasin B, reference compound]: the “2-deoxy-[1,2-3H(N)]-glucose uptake on addition of cytochalasin B” value in test [3] was “almost completely inhibited”.
